Experimental data from ChEMBL document CHEMBL2413072, “Synthesis and in vitro anticancer studies of novel C-2 arylidene congeners of lantadenes” (2013).
The source made the active and inactive calls. The rule behind the calls is not given here.

Experiments:
Format in all cases: functional
NCI-H226 = assay: Growth inhibition of human NCI-H226 cells assessed as growth inhibition at 10 uM by sulforhodamine B assay; settings: read-out: GI
HCT-15 [1] = assay: Growth inhibition of human HCT15 cells assessed as cell growth at 10 uM by sulforhodamine B assay; settings: read-out: Activity
HT-29 = assay: Growth inhibition of human HT-29 cells assessed as cell growth at 10 uM by sulforhodamine B assay; settings: read-out: Activity
OVCAR-5 [2] = assay: Growth inhibition of human OVCAR5 cells assessed as cell growth at 10 uM by sulforhodamine B assay; settings: read-out: Activity
SF-295 [3] = assay: Growth inhibition of human SF295 cells assessed as cell growth at 10 uM by sulforhodamine B assay; settings: read-out: Activity
MOLT-4 [4] = assay: Growth inhibition of human MOLT4 cells assessed as cell growth at 10 uM by sulforhodamine B assay; settings: read-out: Activity
MDA-MB-468 [5] = assay: Growth inhibition of human MDA-MB-468 cells assessed as cell growth at 10 uM by sulforhodamine B assay; settings: read-out: Activity
SK-MEL-2 = assay: Growth inhibition of human SK-MEL-2 cells assessed as cell growth at 10 uM by sulforhodamine B assay; settings: read-out: Activity
NCI-H460 = assay: Growth inhibition of human NCI-H460 cells assessed as growth inhibition at 10 uM by sulforhodamine B assay; settings: read-out: GI
NCI-H23 [6] = assay: Growth inhibition of human NCI-H23 cells assessed as cell growth at 10 uM by sulforhodamine B assay; settings: read-out: Activity
HOP-62 = assay: Growth inhibition of human HOP62 cells assessed as cell growth at 10 uM by sulforhodamine B assay; settings: read-out: Activity
UACC-257 = assay: Growth inhibition of human UACC257 cells assessed as cell growth at 10 uM by sulforhodamine B assay; settings: read-out: Activity
786-0 [7] = assay: Growth inhibition of human 786-0 cells assessed as growth inhibition at 10 uM by sulforhodamine B assay; settings: read-out: GI
OVCAR-3 [8] = assay: Growth inhibition of human OVCAR3 cells assessed as cell growth at 10 uM by sulforhodamine B assay; settings: read-out: Activity
[9] = Growth inhibition of human NCI-ADR-RES cells assessed as growth inhibition at 10 uM by sulforhodamine B assay; settings: read-out: GI
SF-295 [10] = assay: Growth inhibition of human SF295 cells assessed as growth inhibition at 10 uM by sulforhodamine B assay; settings: read-out: GI
NCI-H522 = assay: Growth inhibition of human NCI-H522 cells assessed as cell growth at 10 uM by sulforhodamine B assay; settings: read-out: Activity
UACC-62 [11] = assay: Growth inhibition of human UACC62 cells assessed as cell growth at 10 uM by sulforhodamine B assay; settings: read-out: Activity
MDA-MB-435 [12] = assay: Growth inhibition of human MDA-MB-435 cells assessed as cell growth at 10 uM by sulforhodamine B assay; settings: read-out: Activity
DU-145 = assay: Growth inhibition of human DU145 cells assessed as growth inhibition at 10 uM by sulforhodamine B assay; settings: read-out: GI
HL-60(TB) [13] = assay: Growth inhibition of human HL-60(TB) cells assessed as growth inhibition at 10 uM by sulforhodamine B assay
SK-MEL-28 [14] = assay: Growth inhibition of human SK-MEL-28 cells assessed as cell growth at 10 uM by sulforhodamine B assay; settings: read-out: Activity
HCT-15 [15] = assay: Growth inhibition of human HCT15 cells assessed as growth inhibition at 10 uM by sulforhodamine B assay; settings: read-out: GI
SNB-19 = assay: Growth inhibition of human SNB19 cells assessed as cell growth at 10 uM by sulforhodamine B assay; settings: read-out: Activity
MDA-MB-468 [16] = assay: Growth inhibition of human MDA-MB-468 cells assessed as growth inhibition at 10 uM by sulforhodamine B assay; settings: read-out: GI
OVCAR-3 [17] = assay: Growth inhibition of human OVCAR3 cells assessed as growth inhibition at 10 uM by sulforhodamine B assay; settings: read-out: GI
[18] = Growth inhibition of human EKVX cells assessed as growth inhibition at 10 uM by sulforhodamine B assay; settings: read-out: GI
RPMI-8226 = assay: Growth inhibition of human RPMI8226 cells assessed as growth inhibition at 10 uM by sulforhodamine B assay; settings: read-out: GI
MDA-MB-435 [19] = assay: Growth inhibition of human MDA-MB-435 cells assessed as growth inhibition at 10 uM by sulforhodamine B assay; settings: read-out: GI
NCI-H322M [20] = assay: Growth inhibition of human NCI-H322M cells assessed as cell growth at 10 uM by sulforhodamine B assay; settings: read-out: Activity
HL-60(TB) [21] = assay: Growth inhibition of human HL-60(TB) cells assessed as cell growth at 10 uM by sulforhodamine B assay; settings: read-out: Activity
786-0 [22] = assay: Growth inhibition of human 786-0 cells assessed as cell growth at 10 uM by sulforhodamine B assay; settings: read-out: Activity
U-251 = assay: Growth inhibition of human U251 cells assessed as cell growth at 10 uM by sulforhodamine B assay; settings: read-out: Activity
A498 = assay: Growth inhibition of human A498 cells assessed as growth inhibition at 10 uM by sulforhodamine B assay; settings: read-out: GI
M14 = assay: Growth inhibition of human M14 cells assessed as cell growth at 10 uM by sulforhodamine B assay; settings: read-out: Activity
NCI-H322M [23] = assay: Growth inhibition of human NCI-H322M cells assessed as growth inhibition at 10 uM by sulforhodamine B assay; settings: read-out: GI
COLO 205 = assay: Growth inhibition of human COLO205 cells assessed as growth inhibition at 10 uM by sulforhodamine B assay; settings: read-out: GI
HCT-116 = assay: Growth inhibition of human HCT116 cells assessed as growth inhibition at 10 uM by sulforhodamine B assay; settings: read-out: GI
MOLT-4 [24] = assay: Growth inhibition of human MOLT4 cells assessed as growth inhibition at 10 uM by sulforhodamine B assay; settings: read-out: GI
OVCAR-5 [25] = assay: Growth inhibition of human OVCAR5 cells assessed as growth inhibition at 10 uM by sulforhodamine B assay; settings: read-out: GI
UACC-62 [26] = assay: Growth inhibition of human UACC62 cells assessed as growth inhibition at 10 uM by sulforhodamine B assay; settings: read-out: GI
ACHN = assay: Growth inhibition of human ACHN cells assessed as cell growth at 10 uM by sulforhodamine B assay; settings: read-out: Activity
SNB-75 = assay: Growth inhibition of human SNB75 cells assessed as cell growth at 10 uM by sulforhodamine B assay; settings: read-out: Activity
TK-10 = assay: Growth inhibition of human TK10 cells assessed as growth inhibition at 10 uM by sulforhodamine B assay; settings: read-out: GI
IGROV-1 = assay: Growth inhibition of human IGROV1 cells assessed as growth inhibition at 10 uM by sulforhodamine B assay; settings: read-out: GI
[27] = Growth inhibition of human HCC2998 cells assessed as cell growth at 10 uM by sulforhodamine B assay; settings: HCC 2998, read-out: Activity
SK-MEL-28 [28] = assay: Growth inhibition of human SK-MEL-28 cells assessed as growth inhibition at 10 uM by sulforhodamine B assay; settings: read-out: GI
SK-OV-3 = assay: Growth inhibition of human SKOV3 cells assessed as growth inhibition at 10 uM by sulforhodamine B assay; settings: read-out: GI
NCI-H23 [29] = assay: Growth inhibition of human NCI-H23 cells assessed as growth inhibition at 10 uM by sulforhodamine B assay; settings: read-out: GI

## CC1(C)C[C@@H](O)[C@]2(C(=O)O)CC[C@]3(C)C(=CC[C@@H]4[C@@]5(C)CCC(=O)C(C)(C)[C@@H]5CC[C@]43C)[C@@H]2C1
NCI-H226
  inhibition of growth at 10 µM: < 10%
HCT-15 [1]
  growth at 10 µM: 75.4%
HT-29
  growth at 10 µM: 83.2%
OVCAR-5 [2]
  growth at 10 µM: 108%
SF-295 [3]
  growth at 10 µM: 80.7%
MOLT-4 [4]
  growth at 10 µM: 78.7%
MDA-MB-468 [5]
  growth at 10 µM: 96.2%
SK-MEL-2
  growth at 10 µM: 96%
NCI-H460
  inhibition of growth at 10 µM: < 10%
NCI-H23 [6]
  growth at 10 µM: 92.3%
HOP-62
  growth at 10 µM: 88.7%
UACC-257
  growth at 10 µM: 91.2%
786-0 [7]
  inhibition of growth at 10 µM: 13.8%
OVCAR-3 [8]
  growth at 10 µM: 104%
[9]
  inhibition of growth at 10 µM: < 10%
SF-295 [10]
  inhibition of growth at 10 µM: 19.3%
NCI-H522
  growth at 10 µM: 80.9%
UACC-62 [11]
  growth at 10 µM: 80.5%
MDA-MB-435 [12]
  growth at 10 µM: 102%
DU-145
  inhibition of growth at 10 µM: < 10%
HL-60(TB) [13]; read-out: GI
  inhibition of growth at 10 µM: 24.8%
SK-MEL-28 [14]
  growth at 10 µM: 98%
HCT-15 [15]
  inhibition of growth at 10 µM: 24.6%
SNB-19
  growth at 10 µM: 94.2%
MDA-MB-468 [16]
  inhibition of growth at 10 µM: < 10%
OVCAR-3 [17]
  inhibition of growth at 10 µM: < 10%
[18]
  inhibition of growth at 10 µM: < 10%
RPMI-8226
  inhibition of growth at 10 µM: 29.8%
MDA-MB-435 [19]
  inhibition of growth at 10 µM: < 10%
NCI-H322M [20]
  growth at 10 µM: 97.5%
HL-60(TB) [21]
  growth at 10 µM: 75.2%
786-0 [22]
  growth at 10 µM: 86.2%
U-251
  growth at 10 µM: 89.2%
A498
  inhibition of growth at 10 µM: < 10%
M14
  growth at 10 µM: 93.4%
NCI-H322M [23]
  inhibition of growth at 10 µM: < 10%
COLO 205
  inhibition of growth at 10 µM: < 10%
HCT-116
  inhibition of growth at 10 µM: 21.2%
MOLT-4 [24]
  inhibition of growth at 10 µM: 21.3%
OVCAR-5 [25]
  inhibition of growth at 10 µM: < 10%
UACC-62 [26]
  inhibition of growth at 10 µM: 19.5%
ACHN
  growth at 10 µM: 91.8%
SNB-75
  growth at 10 µM: 101%
TK-10
  inhibition of growth at 10 µM: < 10%
IGROV-1
  inhibition of growth at 10 µM: < 10%
[27]
  growth at 10 µM: 91%
SK-MEL-28 [28]
  inhibition of growth at 10 µM: < 10%
SK-OV-3
  inhibition of growth at 10 µM: < 10%
NCI-H23 [29]
  inhibition of growth at 10 µM: < 10%

## C/C=C(/C)C(=O)O[C@@H]1CC(C)(C)C[C@H]2C3=CC[C@@H]4[C@@]5(C)CCC(=O)C(C)(C)[C@@H]5CC[C@@]4(C)[C@]3(C)CC[C@@]12C(=O)O [LANTADENE A]
NCI-H226
  inhibition of growth at 10 µM: 18%
HCT-15 [1]
  growth at 10 µM: 30.2%
HT-29
  growth at 10 µM: 67.9%
OVCAR-5 [2]
  growth at 10 µM: 92.4%
SF-295 [3]
  growth at 10 µM: 27.6%
MOLT-4 [4]
  growth at 10 µM: 43.3%
MDA-MB-468 [5]
  growth at 10 µM: 50.8%
SK-MEL-2
  growth at 10 µM: 77.1%
NCI-H460
  inhibition of growth at 10 µM: 48.5%
NCI-H23 [6]
  growth at 10 µM: 58%
HOP-62
  growth at 10 µM: 75.6%
UACC-257
  growth at 10 µM: 70%
786-0 [7]
  inhibition of growth at 10 µM: 55.5%
OVCAR-3 [8]
  growth at 10 µM: 62.6%
[9]
  inhibition of growth at 10 µM: 26.9%
SF-295 [10]
  inhibition of growth at 10 µM: 72.3%
NCI-H522
  growth at 10 µM: 66.1%
UACC-62 [11]
  growth at 10 µM: 49.9%
MDA-MB-435 [12]
  growth at 10 µM: 87.8%
DU-145
  inhibition of growth at 10 µM: 17.4%
HL-60(TB) [13]
  growth inhibition (GI): Active
SK-MEL-28 [14]
  growth at 10 µM: 82.7%
HCT-15 [15]
  inhibition of growth at 10 µM: 69.8%
SNB-19
  growth at 10 µM: 59.4%
MDA-MB-468 [16]
  inhibition of growth at 10 µM: 49.2%
OVCAR-3 [17]
  inhibition of growth at 10 µM: 37.4%
[18]
  inhibition of growth at 10 µM: 50.7%
RPMI-8226
  inhibition of growth at 10 µM: 83.3%
MDA-MB-435 [19]
  inhibition of growth at 10 µM: 12.2%
NCI-H322M [20]
  growth at 10 µM: 68.5%
HL-60(TB) [21]
  growth at 10 µM: -5.42%
786-0 [22]
  growth at 10 µM: 44.5%
U-251
  growth at 10 µM: 60.1%
A498
  inhibition of growth at 10 µM: 23.8%
M14
  growth at 10 µM: 63.8%
NCI-H322M [23]
  inhibition of growth at 10 µM: 31.4%
COLO 205
  inhibition of growth at 10 µM: 22%
HCT-116
  inhibition of growth at 10 µM: 66%
MOLT-4 [24]
  inhibition of growth at 10 µM: 56.7%
OVCAR-5 [25]
  inhibition of growth at 10 µM: < 10%
UACC-62 [26]
  inhibition of growth at 10 µM: 50.1%
ACHN
  growth at 10 µM: 53.9%
SNB-75
  growth at 10 µM: 86.9%
TK-10
  inhibition of growth at 10 µM: 16.7%
IGROV-1
  inhibition of growth at 10 µM: 28.4%
[27]
  growth at 10 µM: 61.4%
SK-MEL-28 [28]
  inhibition of growth at 10 µM: 17.3%
SK-OV-3
  inhibition of growth at 10 µM: < 10%
NCI-H23 [29]
  inhibition of growth at 10 µM: 42%
